Measurements published in ChEMBL document CHEMBL5465560, “Selectivity Literature for EUbOPEN Chemogenomic Library” (2024).
Values belong to the compound of their own block, whether it stands above or below them.

Legend:
[1] = target: Serine/threonine-protein kinase 32C (Homo sapiens) (UniProt Q86UX6); assay: Selectivity interaction (KinomeScan (DiscoverX)) EUB0001049a STK32C; conditions: at 1 µM
[2] = target: Leukocyte tyrosine kinase receptor (Homo sapiens, UniProt P29376); assay: Selectivity interaction (KinomeScan (DiscoverX)) EUB0001049a LTK; conditions: at 1 µM
Sequence of Leukocyte tyrosine kinase receptor (P29376 whole entry): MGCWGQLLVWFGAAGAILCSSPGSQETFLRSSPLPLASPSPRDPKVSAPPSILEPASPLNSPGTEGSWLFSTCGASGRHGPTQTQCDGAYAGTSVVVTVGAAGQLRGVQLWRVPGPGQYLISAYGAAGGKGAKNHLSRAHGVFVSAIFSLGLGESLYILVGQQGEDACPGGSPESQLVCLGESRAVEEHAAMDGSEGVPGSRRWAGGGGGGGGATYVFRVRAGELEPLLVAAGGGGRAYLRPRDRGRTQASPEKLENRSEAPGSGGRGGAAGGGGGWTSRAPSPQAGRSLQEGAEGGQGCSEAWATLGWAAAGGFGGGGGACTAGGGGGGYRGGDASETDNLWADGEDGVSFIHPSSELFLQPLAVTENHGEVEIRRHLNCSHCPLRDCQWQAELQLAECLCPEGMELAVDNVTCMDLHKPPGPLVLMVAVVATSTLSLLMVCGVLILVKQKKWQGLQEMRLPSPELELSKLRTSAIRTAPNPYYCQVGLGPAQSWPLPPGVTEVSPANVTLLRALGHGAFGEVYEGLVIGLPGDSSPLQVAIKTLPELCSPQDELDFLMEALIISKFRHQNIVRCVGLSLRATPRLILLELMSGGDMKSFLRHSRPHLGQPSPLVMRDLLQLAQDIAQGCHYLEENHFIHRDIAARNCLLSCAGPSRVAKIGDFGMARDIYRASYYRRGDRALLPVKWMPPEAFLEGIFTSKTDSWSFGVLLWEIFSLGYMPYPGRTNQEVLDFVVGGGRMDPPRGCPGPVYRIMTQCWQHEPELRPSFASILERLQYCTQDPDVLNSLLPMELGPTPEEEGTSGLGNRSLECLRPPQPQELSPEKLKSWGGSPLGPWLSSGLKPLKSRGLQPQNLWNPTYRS

[3] = target: MAP/microtubule affinity-regulating kinase 3 (Homo sapiens) (UniProt P27448); assay: Selectivity interaction (Ambit KINOMEscan and KiNATiv profiling in Jurkat cells) EUB0000090b MARK3; format: cell-based; conditions: at 1 µM
Sequence of MAP/microtubule affinity-regulating kinase 3 (Homo sapiens) (P27448 whole entry, looked up): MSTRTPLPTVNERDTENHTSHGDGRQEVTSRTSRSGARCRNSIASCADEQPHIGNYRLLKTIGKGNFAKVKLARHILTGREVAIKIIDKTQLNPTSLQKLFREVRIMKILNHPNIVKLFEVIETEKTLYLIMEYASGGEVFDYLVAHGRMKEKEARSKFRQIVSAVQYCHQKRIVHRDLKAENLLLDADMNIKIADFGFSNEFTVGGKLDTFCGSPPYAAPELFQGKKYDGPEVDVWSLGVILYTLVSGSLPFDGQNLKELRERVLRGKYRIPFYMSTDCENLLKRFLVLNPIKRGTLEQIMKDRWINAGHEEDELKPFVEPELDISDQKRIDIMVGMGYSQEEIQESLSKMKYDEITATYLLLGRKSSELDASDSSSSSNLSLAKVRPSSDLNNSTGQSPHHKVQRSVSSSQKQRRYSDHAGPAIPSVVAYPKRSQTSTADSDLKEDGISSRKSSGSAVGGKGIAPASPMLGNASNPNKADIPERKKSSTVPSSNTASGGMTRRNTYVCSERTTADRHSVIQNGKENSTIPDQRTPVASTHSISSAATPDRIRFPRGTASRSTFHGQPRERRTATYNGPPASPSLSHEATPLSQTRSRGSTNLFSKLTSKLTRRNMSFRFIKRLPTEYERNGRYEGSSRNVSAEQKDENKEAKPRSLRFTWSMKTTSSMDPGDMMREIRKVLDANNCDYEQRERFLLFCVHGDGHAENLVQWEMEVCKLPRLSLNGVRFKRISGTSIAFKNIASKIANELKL

[4] = target: Calcium/calmodulin-dependent protein kinase kinase 2 (Homo sapiens) (UniProt Q96RR4); conditions: at 10 µM
Sequence of Calcium/calmodulin-dependent protein kinase kinase 2 (Homo sapiens) (Q96RR4 2-588 limits assumed): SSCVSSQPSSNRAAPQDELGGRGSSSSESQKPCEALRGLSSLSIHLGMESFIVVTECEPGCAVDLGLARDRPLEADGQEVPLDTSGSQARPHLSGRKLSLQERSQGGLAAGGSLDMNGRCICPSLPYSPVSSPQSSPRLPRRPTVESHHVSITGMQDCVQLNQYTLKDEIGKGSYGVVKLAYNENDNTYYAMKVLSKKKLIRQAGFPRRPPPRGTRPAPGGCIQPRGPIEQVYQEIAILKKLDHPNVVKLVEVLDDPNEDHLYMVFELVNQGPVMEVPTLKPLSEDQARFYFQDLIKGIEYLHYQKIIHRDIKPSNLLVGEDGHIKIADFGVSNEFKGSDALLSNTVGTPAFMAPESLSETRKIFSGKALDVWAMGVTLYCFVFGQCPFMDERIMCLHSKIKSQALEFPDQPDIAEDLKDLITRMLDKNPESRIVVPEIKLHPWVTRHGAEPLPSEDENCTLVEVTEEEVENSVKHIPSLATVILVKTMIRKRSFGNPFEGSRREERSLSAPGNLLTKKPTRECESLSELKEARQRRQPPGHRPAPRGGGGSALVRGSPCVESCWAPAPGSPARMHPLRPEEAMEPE

[5] = target: Dual specificity testis-specific protein kinase 1 (Homo sapiens) (UniProt Q15569); assay: Selectivity interaction (KinomeScan (DiscoverX)) EUB0000229b TESK1; conditions: at 10 µM
Sequence of Dual specificity testis-specific protein kinase 1 (Homo sapiens) (Q15569 whole entry, looked up): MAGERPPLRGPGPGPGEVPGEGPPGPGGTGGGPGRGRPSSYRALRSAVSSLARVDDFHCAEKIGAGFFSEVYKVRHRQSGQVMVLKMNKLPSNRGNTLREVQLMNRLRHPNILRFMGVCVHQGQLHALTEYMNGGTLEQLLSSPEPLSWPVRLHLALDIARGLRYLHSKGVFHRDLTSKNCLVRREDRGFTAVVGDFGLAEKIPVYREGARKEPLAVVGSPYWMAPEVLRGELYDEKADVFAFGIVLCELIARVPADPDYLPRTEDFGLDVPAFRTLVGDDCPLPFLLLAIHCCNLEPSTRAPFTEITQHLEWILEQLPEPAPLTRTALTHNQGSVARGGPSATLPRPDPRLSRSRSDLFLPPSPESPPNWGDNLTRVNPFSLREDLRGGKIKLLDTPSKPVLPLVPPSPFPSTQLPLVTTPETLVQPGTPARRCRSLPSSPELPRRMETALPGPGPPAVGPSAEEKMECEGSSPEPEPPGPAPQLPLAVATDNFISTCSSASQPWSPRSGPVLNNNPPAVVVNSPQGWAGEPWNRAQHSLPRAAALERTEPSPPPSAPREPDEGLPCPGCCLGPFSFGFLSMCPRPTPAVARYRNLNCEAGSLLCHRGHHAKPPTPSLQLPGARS

[6] = target: T1, Tyrosine-protein kinase receptor TYRO3 (Homo sapiens) (UniProt Q06418); assay: Selectivity interaction (KinomeScan (DiscoverX)) EUB0001079a TYRO3; conditions: at 1 µM
T1 sequence (whole entry): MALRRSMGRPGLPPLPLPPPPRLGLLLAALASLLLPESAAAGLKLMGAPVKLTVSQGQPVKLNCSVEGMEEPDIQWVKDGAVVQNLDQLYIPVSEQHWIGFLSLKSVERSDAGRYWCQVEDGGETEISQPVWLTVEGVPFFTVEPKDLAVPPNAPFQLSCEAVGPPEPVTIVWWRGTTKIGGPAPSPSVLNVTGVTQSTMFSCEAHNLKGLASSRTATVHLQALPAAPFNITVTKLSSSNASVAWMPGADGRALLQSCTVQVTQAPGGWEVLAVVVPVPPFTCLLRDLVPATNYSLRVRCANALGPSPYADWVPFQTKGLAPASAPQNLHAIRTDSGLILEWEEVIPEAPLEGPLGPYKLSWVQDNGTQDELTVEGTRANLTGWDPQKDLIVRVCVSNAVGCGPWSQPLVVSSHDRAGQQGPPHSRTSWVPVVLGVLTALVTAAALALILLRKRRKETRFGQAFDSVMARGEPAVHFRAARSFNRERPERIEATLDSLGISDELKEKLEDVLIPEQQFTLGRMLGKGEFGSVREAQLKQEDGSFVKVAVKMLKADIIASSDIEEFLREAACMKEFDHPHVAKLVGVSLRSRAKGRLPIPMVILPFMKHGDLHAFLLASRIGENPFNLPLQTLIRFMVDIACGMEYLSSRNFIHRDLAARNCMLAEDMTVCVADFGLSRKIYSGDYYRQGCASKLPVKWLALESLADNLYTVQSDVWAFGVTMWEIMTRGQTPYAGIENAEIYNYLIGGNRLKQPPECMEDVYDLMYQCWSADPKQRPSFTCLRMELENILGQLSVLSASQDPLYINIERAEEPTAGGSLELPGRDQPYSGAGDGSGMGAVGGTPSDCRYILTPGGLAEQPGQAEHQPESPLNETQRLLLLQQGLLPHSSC

[7] = target: Activin receptor type-2A (Homo sapiens) (UniProt P27037); assay: Selectivity interaction (KinomeScan (DiscoverX)) EUB0001079a ACVR2A; conditions: at 1 µM
Sequence of Activin receptor type-2A (Homo sapiens) (P27037 whole entry): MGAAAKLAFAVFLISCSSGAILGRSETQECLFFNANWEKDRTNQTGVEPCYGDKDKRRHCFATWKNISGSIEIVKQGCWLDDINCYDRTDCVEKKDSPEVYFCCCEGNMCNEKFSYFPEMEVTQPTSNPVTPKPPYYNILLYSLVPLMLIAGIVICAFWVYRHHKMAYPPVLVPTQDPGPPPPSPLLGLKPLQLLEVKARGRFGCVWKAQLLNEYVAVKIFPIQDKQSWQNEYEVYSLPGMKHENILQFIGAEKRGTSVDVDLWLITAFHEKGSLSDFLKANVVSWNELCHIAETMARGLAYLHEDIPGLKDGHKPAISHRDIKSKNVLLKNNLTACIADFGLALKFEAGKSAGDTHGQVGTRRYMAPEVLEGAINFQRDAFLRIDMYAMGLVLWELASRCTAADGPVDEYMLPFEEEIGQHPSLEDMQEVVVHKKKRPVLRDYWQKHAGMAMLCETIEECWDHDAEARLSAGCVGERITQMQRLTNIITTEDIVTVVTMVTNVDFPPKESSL

[8] = target: T2, Tyrosine-protein kinase Tec (Homo sapiens) (UniProt P42680); assay: Selectivity interaction (KinomeScan (DiscoverX)) EUB0000092b TEC; conditions: at 10 µM
T2 sequence (whole entry): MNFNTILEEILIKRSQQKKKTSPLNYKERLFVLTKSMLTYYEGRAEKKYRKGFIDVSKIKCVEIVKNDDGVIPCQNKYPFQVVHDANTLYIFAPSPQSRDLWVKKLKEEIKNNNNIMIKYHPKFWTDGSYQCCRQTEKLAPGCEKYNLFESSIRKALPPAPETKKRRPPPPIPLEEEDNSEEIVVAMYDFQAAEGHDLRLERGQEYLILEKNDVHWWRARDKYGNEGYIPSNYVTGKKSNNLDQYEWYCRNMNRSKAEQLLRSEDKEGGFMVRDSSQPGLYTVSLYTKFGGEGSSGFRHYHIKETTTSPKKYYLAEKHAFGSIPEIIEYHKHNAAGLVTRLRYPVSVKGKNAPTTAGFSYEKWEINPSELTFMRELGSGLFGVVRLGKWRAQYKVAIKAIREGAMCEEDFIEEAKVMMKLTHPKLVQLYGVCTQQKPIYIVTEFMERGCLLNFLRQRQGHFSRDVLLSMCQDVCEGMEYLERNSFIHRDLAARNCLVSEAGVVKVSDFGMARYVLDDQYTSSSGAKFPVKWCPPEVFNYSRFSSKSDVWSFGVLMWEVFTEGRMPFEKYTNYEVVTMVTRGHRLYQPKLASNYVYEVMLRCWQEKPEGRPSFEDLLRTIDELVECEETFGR

[9] = target: Tyrosine-protein kinase FRK (Homo sapiens) (UniProt P42685); assay: Selectivity interaction (Upstate Kinase Profiler service (Millipore)) EUB0000056c FRK; conditions: at 1 µM
Sequence of Tyrosine-protein kinase FRK (Homo sapiens) (P42685 whole entry): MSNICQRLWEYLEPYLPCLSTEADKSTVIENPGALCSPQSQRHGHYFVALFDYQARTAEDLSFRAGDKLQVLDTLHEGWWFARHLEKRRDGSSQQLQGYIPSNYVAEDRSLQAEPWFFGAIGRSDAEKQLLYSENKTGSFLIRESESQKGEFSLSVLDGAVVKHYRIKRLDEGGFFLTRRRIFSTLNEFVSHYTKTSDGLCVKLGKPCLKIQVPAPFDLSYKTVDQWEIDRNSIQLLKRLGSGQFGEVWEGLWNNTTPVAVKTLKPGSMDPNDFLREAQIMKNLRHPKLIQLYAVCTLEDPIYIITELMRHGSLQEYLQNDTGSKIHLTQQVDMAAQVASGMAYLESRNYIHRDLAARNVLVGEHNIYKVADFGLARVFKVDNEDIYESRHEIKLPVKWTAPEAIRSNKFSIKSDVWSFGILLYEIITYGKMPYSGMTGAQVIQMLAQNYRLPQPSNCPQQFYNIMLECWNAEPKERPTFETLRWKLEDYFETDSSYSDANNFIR

[10] = target: Dual specificity protein kinase CLK1 (Homo sapiens, UniProt P49759); assay: Selectivity interaction (KinomeScan (DiscoverX)) EUB0000607a CLK1; conditions: at 10 µM
Sequence of Dual specificity protein kinase CLK1 (P49759 whole entry, looked up): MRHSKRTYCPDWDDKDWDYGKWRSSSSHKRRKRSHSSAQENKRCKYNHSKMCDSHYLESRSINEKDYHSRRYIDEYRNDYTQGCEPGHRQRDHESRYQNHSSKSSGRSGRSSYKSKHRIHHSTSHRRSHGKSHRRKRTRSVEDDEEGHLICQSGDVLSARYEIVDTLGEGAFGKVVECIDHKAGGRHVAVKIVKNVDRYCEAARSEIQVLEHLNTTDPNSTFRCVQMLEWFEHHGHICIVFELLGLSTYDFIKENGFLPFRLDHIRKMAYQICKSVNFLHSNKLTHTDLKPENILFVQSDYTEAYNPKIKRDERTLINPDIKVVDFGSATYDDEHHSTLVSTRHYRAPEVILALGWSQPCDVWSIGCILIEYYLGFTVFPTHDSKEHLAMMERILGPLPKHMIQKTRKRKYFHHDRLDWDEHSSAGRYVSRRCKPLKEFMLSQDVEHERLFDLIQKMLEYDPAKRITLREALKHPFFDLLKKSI

Sequence of Serine/threonine-protein kinase 32C (Homo sapiens) (Q86UX6 whole entry): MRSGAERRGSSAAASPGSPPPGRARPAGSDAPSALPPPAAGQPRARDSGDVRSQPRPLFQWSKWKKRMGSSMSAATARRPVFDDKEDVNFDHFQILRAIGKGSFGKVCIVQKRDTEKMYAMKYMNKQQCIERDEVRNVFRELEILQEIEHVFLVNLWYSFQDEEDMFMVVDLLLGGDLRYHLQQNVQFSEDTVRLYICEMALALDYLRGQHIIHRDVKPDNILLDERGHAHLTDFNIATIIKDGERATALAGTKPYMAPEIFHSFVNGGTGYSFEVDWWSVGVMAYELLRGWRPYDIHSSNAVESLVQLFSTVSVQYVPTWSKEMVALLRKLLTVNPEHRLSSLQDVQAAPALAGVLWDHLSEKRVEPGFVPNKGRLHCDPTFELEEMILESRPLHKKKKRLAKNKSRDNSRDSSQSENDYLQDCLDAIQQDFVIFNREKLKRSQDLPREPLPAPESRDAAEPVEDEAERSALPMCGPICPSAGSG

Compound: COc1cc(Nc2nc(C)cc(-c3cnn4nc(OC)ccc34)n2)cc(C(F)(F)F)c1
% of control [1]: 87%
% of control [2]: 91%

Compound: CN(C)C/C=C/C(=O)Nc1ccc(C(=O)N2CCCC(Nc3ncc(Cl)c(-c4c[nH]c5ccccc45)n3)C2)cc1 (stereo not given)
% of control [3]: 88%

% of control [4]: 100%
Compound: CCN(CC)CCCCNc1ncc2cc(-c3cc(OC)cc(OC)c3)c(NC(=O)NC(C)(C)C)nc2n1

Compound: COc1cc(N(C)c2ccnc3ccc(C(F)(F)F)cc23)cc(OC)c1OC
% binding [5]: 90%

Compound: Nc1cnc(N2CCc3cc(S(=O)(=O)Nc4c(F)cc(Cl)cc4F)cc(N4CCCC4=O)c32)nc1 [TP-020n]
% of control [6]: 100%
% of control [7]: 67%

Compound: CCC(=O)N1CCN(c2ccc(-n3c(=O)ccc4cnc5ccc(-c6cnc7ccccc7c6)cc5c43)cc2C(F)(F)F)CC1
% of control [8]: 99%

% of inhibition [9]: 32%
Compound: Cc1ccc(-c2ccc3c(ccc4sc5c(c43)NC[C@@H](C)NC5=O)n2)cn1

Compound: CNC(=O)Nc1ccc(-c2nc(N3CC4CCC(C3)O4)c3cnn(C4CCC5(CC4)OCCO5)c3n2)cc1
% of control [10]: 29%
